Like-named read-outs stand apart in the source and are kept apart here.

The text below walks through data of PMC6269755, “In Vitro Antiprotozoal Activity of Triterpenoid Constituents of Kleinia odora Growing in Saudi Arabia” (Molecules, 2013).

For data set [1], the system named is T. cruzi Tulahuen CL2 (benznidazole-sensitive). In words: Antitrypanosomal activity, T. cruzi on MRC-5 cells. Type of data set: cell-based, Trypanosoma cruzi. To be noted: for IC50: pure compounds, 7 days; for T. cruzi SI: selectivity index vs MRC-5 cytotoxicity. Here is the method: (§1) The integrated panel of microbial screens and standard screening methodologies were adopted as previously described. All assays were performed in triplicate at the Laboratory of Microbiology, Parasitology and Hygiene at the University of Antwerp (Belgium). […] Selectivity of activity was assessed by simultaneous evaluation of cytotoxicity on a fibroblast (MRC-5) cell line.
(§2) Trypanosoma brucei Squib-427 strain (suramin-sensitive) was cultured at 37 °C and 5% CO2 in Hirumi-9 medium, supplemented with 10% fetal calf serum (FCS). About 1.5 × 10^4 trypomastigotes/well were added to each well and parasite growth was assessed after 72 h at 37 °C by adding resazurin [35]. For Chagas disease, T. cruzi Tulahuen CL2 (benznidazole-sensitive) was maintained on MRC-5 cells in minimal essential medium (MEM) supplemented with 20 mM L-glutamine, 16.5 mM sodium hydrogen carbonate and 5% FCS. In the assay, 4 × 10^3 MRC-5 cells and 4 × 10^4 parasites were added to each well and after incubation at 37 °C for 7 days, Parasite growth was assessed by adding the […]. The color reaction was read at 540 nm after 4 h and absorbance values were expressed as a percentage of the blank controls.

In data set [2] the test system is Chloroquine-resistant P. falciparum K 1-strain. The experiment in a line: Antiplasmodial activity, Malstat (pLDH) assay. To be noted: for IC50: 72 h, read-out: P. falciparum IC50; for P. falciparum SI: selectivity index vs MRC-5 cytotoxicity. In kind it is cell-based, Plasmodium falciparum. On the procedure: as §1
Chloroquine-resistant P. falciparum K 1-strain was cultured in human erythrocytes O^+ at 37 °C under a low oxygen atmosphere (3% O2, 4% CO2, and 93% N2) in RPMI-1640, supplemented with 10% human serum. Infected human red blood cells (200 μL, 1% parasitaemia, 2% haematocrit) were added to each well and incubated for 72 h. After incubation, test plates were frozen at −20 °C. Parasite multiplication was measured using the Malstat assay, a colorimetric method based on the reduction of 3-acetyl pyridine adenine dinucleotide (APAD) by parasite-specific lactate-dehydrogenase (pLDH).

Data set [3] deals with L. infantum MHOM/MA(BE)/67 amastigotes. In words: Antileishmanial activity, intracellular amastigotes in primary peritoneal mouse macrophages. The note with it: for IC50: pure compounds, intracellular amastigotes, 5 days; for L. infantum SI: selectivity index vs MRC-5 cytotoxicity. Type of data set: cell-based, Leishmania infantum. On the procedure:
The integrated panel of microbial screens and standard screening methodologies were adopted as previously described. All assays were performed in triplicate at the Laboratory of Microbiology, Parasitology and Hygiene at the University of Antwerp (Belgium). […] Selectivity of activity was assessed by simultaneous evaluation of cytotoxicity on a fibroblast (MRC-5) cell line. […] L. infantum MHOM/MA(BE)/67 amastigotes were collected from the spleen of an infected donor hamster and used to infect primary peritoneal mouse macrophages. To determine in vitro antileishmanial activity, 3 × 10^4 macrophages were seeded in each well of a 96-well plate. After 2 days outgrowth, 5 × 10^5 amastigotes/well, were added and incubated for 2 h at 37 °C. Pre-diluted plant extracts were subsequently added and the plates were further incubated for 5 days at 37 °C and 5% CO2. Parasite burdens (mean number of amastigotes/macrophage) were microscopically assessed on 500 cells after Giemsa staining of the […] expressed as a percentage of the blank controls without plant extract.

The test system of data set [4] is Trypanosoma brucei Squib-427 strain (suramin-sensitive). The experiment in a line: Antitrypanosomal activity, T. brucei trypomastigotes, resazurin. In kind it is cell-based. To be noted: for IC50: 72 h, pure compounds; for T. brucei SI: selectivity index vs MRC-5 cytotoxicity. On the procedure: as §1, §2
In general terms: Resazurin is reduced to fluorescent resorufin, in cell work by metabolically active cells.

Data set [5] in a line: Cytotoxicity against MRC-5 cells, resazurin. In kind it is cell-based. The note with it: human, MRC-5 SV2 fibroblast cells, pure compounds. On the procedure: as §1
MRC-5 SV2 cells were cultivated in MEM, supplemented with L-glutamine (20 mM), 16.5 mM sodium hydrogen carbonate and 5% FCS. For the assay, 10^4 MRC-5 cells/well were seeded onto the test plates containing the pre-diluted sample and incubated at 37 °C and 5% CO2 for 72 h. Cell viability was assessed fluorimetrically after 4 h of addition of resazurin. Fluorescence was measured (excitation 550 nm, emission 590 nm) and the results were expressed as % reduction in cell viability compared to control.

Data set [6] concerns T. brucei. Further details: method as in PMID 21782916, PMID 17637068. To be noted: ref 24, 25, cited from earlier work.
Data set [7] has as its system T. cruzi. Further details: method as in PMID 12802734. The note with it: ref 26; cited from earlier work.
For data set [8], the system named is L. donovani. To be noted: cited from earlier work.
The subject of data set [9] is P. falciparum. To be noted: cited from earlier work; for IC50: converted value in brackets, read-out: antiplasmodial IC50.
Data set [10] relates to peripheral blood mononuclear cells. The arrangement: method as in PMID 22468852. To be noted: ref 31; cited from earlier work.
[11] abbreviates: Trypanosoma cruzi, TULAHUEN, MRC5, 168 h.
[12] abbreviates: Plasmodium falciparum, pure compounds, K1 strain.
[13] abbreviates: Leishmania infantum, Macrophage, 120 h.
Setting [14] is: at the highest concentration tested (64 µg/mL).

What is called melting point is the temperature, or range, at which the solid turns liquid. As for `C[C@@H]1CC[C@]2(C)CC[C@]3(C)C(=C[C@@H](O)C4[C@@]5(C)CC[C@H](O)C(C)(C)C5CC[C@]43C)C2[C@H]1C` (stereo partly drawn) (hydrate or solvate) [Cmpd. 5, 3β,11α-Dihydroxyurs-12-ene], the melting point was determined as 205 °C.
The term IC50 denotes the midpoint of a concentration-inhibition curve. As to `O=C(Cn1ccnc1[N+](=O)[O-])NCc1ccccc1` [Benznidazole, reference compound], 1.9 ± 0.3 µM corresponded to half-maximal inhibition in data set [1] (setting [11]) (IC50).
As to `CCN(CC)CCCC(C)Nc1ccnc2cc(Cl)ccc12` (stereo not shown) [Chloroquine, reference compound], in [2] (Plasmodium falciparum), the IC50 was found to be 0.3 ± 0.05 µM.
For the compound `C[C@H]1[C@H](C)CC[C@]2(C(=O)O)CC[C@]3(C)C(=CC[C@@H]4[C@@]5(C)CC[C@H](O)C(C)(C)[C@@H]5CC[C@]43C)[C@H]12` [Cmpd. 3, 3β-hydroxy-urs-12-en-28-oic acid], the IC50 in data set [2] (setting [12]) was 29.7 ± 5.9 µM; in data set [3] (setting [13]), 7.4 ± 1.9 µM; in data set [1] (setting [11]) it was 8.8 ± 2.3 µM; in [4] (Trypanosoma brucei), 2.2 ± 0.6 µM; in data set [6] (converted value in brackets), 2.2 µM; in data set [7], 21 µM. The 50% inhibitory concentration (IC50) in [8] (converted value in brackets, ref 27) is 7.6 µM; in [9] (ref 28), 6.8 µM; in data set [9] (ref 29), 10.7 µM. Also, the “P. falciparum SI” value in [2] is reported as less than 1. Also, in [3], the “L. infantum SI” value is 1.5. Further, the “T. cruzi SI” value in data set [1] is listed as 1.3. The “T. brucei SI” value in [4] came out at 5.2. For the same compound, the IC50 at 72 h in data set [5] came to 11.4 ± 2.1 µM. In data set [6], the “T. brucei IC50” value is on record as 1.0 ± 0.2 µg/mL. The “L. donovani IC50” value in data set [8] (ref 27) is recorded as 3.5 µg/mL. In addition, the results for the “antiplasmodial IC50” value in data set [9] (ref 28) and in data set [9] (ref 29) were 3.1 µg/mL and 4.9 µg/mL, respectively.
In turn, `C[C@H]1[C@H](C)CC[C@@]2(C)[C@@H]1C1=CC[C@@H]3[C@@]4(C)CC[C@H](O)C(C)(C)[C@@H]4CC[C@@]3(C)[C@]1(C)C[C@@H]2O` [Cmpd. 4, urs-12-ene-3β,16β-diol] registered a melting point of 221 °C. For the same compound, the IC50 in [2] (setting [12]) lay within 9.3 to 9.9 µM. The IC50 in [2] (pure compounds, K1 strain) was found to be 9.7 ± 3.2 µM. Further, the “P. falciparum SI” value in data set [2] was greater than 6.6. In addition, the “P. falciparum SI” value in data set [2] (listed as Brein (4)) is greater than 6.5. The compound also returned an IC50 in data set [3] (setting [13]) of 9.3 to 9.9 µM. In addition, in data set [3], half-maximal inhibition (IC50) was put at 9.3 ± 2.2 µM and the “L. infantum SI” value was greater than 6.9. In addition, the “L. infantum SI” value in [3] (listed as Brein (4)) is reported as greater than 6.5. This compound also registered an IC50 in [1] (setting [11]) of 9.3 to 9.9 µM. Further, in data set [1], the midpoint of inhibition, the IC50, lay at 9.9 ± 2.6 µM and the “T. cruzi SI” value is greater than 6.5. The “T. cruzi SI” value in [1] (listed as Brein (4)) is given as greater than 6.5. This compound yielded an IC50 in data set [4] (Trypanosoma brucei) of 2.3 ± 0.4 µM. The “T. brucei SI” value in data set [4] is recorded as greater than 27.8. In [4] (listed as Brein (4)), the “T. brucei SI” value was greater than 27.8. Also, the IC50 at 72 h in data set [5] was greater than 64 µM.
As for `C[C@@H]1CC[C@]2(C)CC[C@]3(C)C(=C[C@@H](O)C4[C@@]5(C)CC[C@H](O)C(C)(C)C5CC[C@]43C)C2[C@H]1C` (stereo partly drawn) [Cmpd. 5, 3β,11α-Dihydroxyurs-12-ene], the IC50 in data set [2] (setting [12]) is 23.9 ± 5.7 µM; in [3] (setting [13]) it was 3.2 ± 0.9 µM; in data set [1] (setting [11]) it was 8.1 ± 1.8 µM; in data set [4] (Trypanosoma brucei), 7.9 µM; in [4] it was 7.8 ± 1.8 µM. Also, the “L. infantum SI” value in data set [3] and in [3] (listed as Compound 5) was greater than 20 throughout. For the same compound, the “T. cruzi SI” value in [1] is recorded as greater than 7.9. The “T. brucei SI” value in data set [4] was greater than 8.2. The same compound returned an IC50 at 72 h in data set [5] greater than 64 µM.
Take `C[C@@H]1CCC23CC[C@]4(C)[C@@](C=CC5[C@@]6(C)CC[C@H](O)C(C)(C)C6CC[C@]54C)(OC2=O)C3[C@H]1C` (stereo partly shown) [Cmpd. 6, 3-Hydroxy-13,28-epoxyurs-11-en-28-one]: the IC50 in data set [2] (setting [12]) was greater than 64 µM; in data set [3] (setting [13]), greater than 64 µM; in data set [1] (setting [11]), greater than 64 µM; in data set [4] (Trypanosoma brucei), 40.9 ± 8.1 µM; in data set [8] (ref 31), 192 µM. The “antiprotozoal activity (P. falciparum)” value in [2] (setting [14]) is “devoid of any antiprotozoal activity”. Also, the “antiprotozoal activity (L. infantum)” value in [3] (setting [14]) is recorded as “devoid of any antiprotozoal activity”. For the same compound, the “antiprotozoal activity (T. cruzi)” value in [1] (setting [14]) is recorded as “devoid of any antiprotozoal activity”. The compound further returned an IC50 at 72 h in data set [5] greater than 64 µM. Besides, the “cytotoxicity towards peripheral blood mononuclear cells” value in data set [10] is reported as “without cytotoxicity”.
Regarding `CCCCCCCCCCCCCCCCOP(=O)([O-])OCC[N+](C)(C)C` [Miltefosine, reference compound], the IC50 in data set [3] (setting [13]) is 10.4 ± 2.1 µM; in data set [8] (ref 31), 9.31 µM.
In turn, `Cc1ccc(C(=O)Nc2ccc(S(=O)(=O)O)c3cc(S(=O)(=O)O)cc(S(=O)(=O)O)c23)cc1NC(=O)c1cccc(NC(=O)Nc2cccc(C(=O)Nc3cc(C(=O)Nc4ccc(S(=O)(=O)O)c5cc(S(=O)(=O)O)cc(S(=O)(=O)O)c45)ccc3C)c2)c1` [Suramine, reference compound] yielded an IC50 in data set [4] (Trypanosoma brucei) of 0.03 ± 0.01 µM.
